Test results from US8450525B2, “Histone deacetylase inhibitors” (Orchid Chemicals & Pharmaceuticals Limited, priority 2007, dated 2013).

What was measured:
[1] = tested on: HCT 116 (colon) cells; experiment: Anti-cancer screen, growth inhibition (MTT); assay type: cell-based; conditions: Homo sapiens, HCT-116 cells, 48 hours of incubation
Procedure, shortened: (§1)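 MTT added for 3 h at 37° C, formazan dissolved in DMSO and A570 read. A T0 plate was measured at compound addition.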

[2] = tested on: NCI-H460 (lung) cells; experiment: Anti-cancer screen, growth inhibition (MTT); assay type: cell-based; conditions: Homo sapiens, 48 hours of incubation
Procedure, shortened: as §1

[3] = tested on: U251 (glioma) cells; experiment: Anti-cancer screen, growth inhibition (MTT); assay type: cell-based; conditions: Homo sapiens, U-251 cells, 48 hours of incubation
Procedure, shortened: as §1

[4] = target: T1, recombinant HDAC1 enzyme (Homo sapiens, UniProt Q13547); experiment: HDAC1 inhibitory activity, recombinant enzyme; assay type: biochemical; conditions: recombinant HDAC1 (BIOMOL); read-out: HDAC1 inhibition (IC50)
T1 construct: purchased BIOMOL, USA
Description: Assay was done in 96-well black microplate and total volume of the assay was 100 μL. Mouse liver enzyme (10 mg/ml) was diluted 1:6 with HDAC buffer. Enzyme cocktail was made of 10 μL of diluted enzyme and 30 μL of HDAC buffer. 40 μl of enzyme cocktail followed by 10 μL of test compound (1 μM and 10 μM) or buffer (control) was added to each well. The plate was pre-incubated at 37° C. for 5 minutes. The HDAC reaction was started by adding 50 μl of HDAC substrate Boc-Lys (Ac)-AMC (Bachem AG, Switzerland). The plate was incubated at 37° C. for 30 minutes. The reaction was stopped by adding 100 μL of Trypsin stop solution and incubating at 37° C. for 15-30 minutes. Measuring the fluorescence at excitation wavelength of 360 nm and emission wavelength of 460 nm monitored the release of AMC. Buffer alone and substrate alone served as blank. […] (Dennis Wegener et al, Anal. Biochem, 321, 2003, 202-208).
Since the benzamide type compounds are known to have potential for HDAC class 1 specificity, active compounds were tested for HDAC1 inhibitory activity. The assay was carried out, as previously described using recombinant HDAC1 enzyme (BIOMOL, USA) and following manufacturer's instructions.

[5] = target: T2, HDAC (Mouse Liver Extract); experiment: HDAC inhibition assay using Boc-Lys(Ac)-AMC substrate, mouse liver enzyme; assay type: biochemical;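 for IC50: IC50 for inhibition of HDAC activity in mouse liver extract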
T2 construct: Mouse liver enzyme (10 mg/ml) was diluted 1:6 with HDAC buffer

T1 sequence (Q13547 whole entry): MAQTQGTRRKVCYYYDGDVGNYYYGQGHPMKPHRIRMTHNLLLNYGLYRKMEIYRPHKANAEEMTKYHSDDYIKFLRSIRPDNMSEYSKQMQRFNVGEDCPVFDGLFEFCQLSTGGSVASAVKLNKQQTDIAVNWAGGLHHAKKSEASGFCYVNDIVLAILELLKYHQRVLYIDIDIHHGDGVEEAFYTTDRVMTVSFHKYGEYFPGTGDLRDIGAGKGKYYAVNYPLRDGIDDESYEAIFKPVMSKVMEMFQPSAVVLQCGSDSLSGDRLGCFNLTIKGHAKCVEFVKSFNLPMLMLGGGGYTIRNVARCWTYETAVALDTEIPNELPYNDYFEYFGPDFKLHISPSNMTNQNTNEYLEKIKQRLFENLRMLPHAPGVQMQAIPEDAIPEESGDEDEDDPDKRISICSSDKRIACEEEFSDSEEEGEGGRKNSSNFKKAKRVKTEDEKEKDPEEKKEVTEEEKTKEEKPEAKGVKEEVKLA

Row | Structure (SMILES) | GI50 [1] [µM] | GI50 [2] [µM] | GI50 [3] [µM] | IC50 [4] [µM] | IC50 [5] [µM] | HDAC Inhibition % (1 μM) [5] [%] | HDAC Inhibition % (10 μM) [5] [%]
1 | COc1ccc(/C(=C\c2ccc(C(=O)Nc3ccccc3N)cc2)C(=O)NC2CC2)cc1 [Example 116, N-(2-Aminophenyl)-4-(3-(cyclopropylamino)-2-(4-methoxyphenyl)-3-oxoprop-1-en-1-yl)benzamide] | 0.4 | 6.1 | 11 | 0.06 | 9 | 32.4 | 55.7
2 | Nc1ccccc1NC(=O)c1ccc(/C=C(/C(=O)NC2CC2)c2cccc(Cl)c2)cc1 [Example 114, N-(2-Aminophenyl)-4-(3-(cyclopropylamino)-2-(3-chlorophenyl)-3-oxoprop-1-en-1-yl)benzamide] | 0.4 | 5 | 4 | 0.044 | 5.5 | 34.5 | 59.0
3 | Nc1ccccc1NC(=O)c1ccc(/C=C(/C(=O)NC2CC2)c2ccccc2Cl)cc1 [Example 112, N-(2-Aminophenyl)-4-(3-(cyclopropylamino)-2-(2-chlorophenyl)-3-oxoprop-1-en-1-yl)benzamide] | 6 | 1.1 | 20 | 0.049 | 4.5 | 29.9 | 55.7
4 | Nc1ccccc1NC(=O)c1ccc(/C=C(/C(=O)NC2CC2)c2ccc(F)c(F)c2)cc1 [Example 115, N-(2-Aminophenyl)-4-(3-(cyclopropylamino)-2-(3,4-difluorophenyl)-3-oxoprop-1-en-1-yl)benzamide] | 0.1 | 6 | 15 | 0.068 | 8.3 | 31.1 | 50.1
5 | Nc1ccccc1NC(=O)c1ccc(/C=C(/C(=O)NC2CC2)c2ccc3c(c2)OCO3)cc1 [Example 111, N-(2-Aminophenyl)-4-(3-(cyclopropylamino)-2-(1,3-benzodioxol-5-yl)-3-oxoprop-1-en-1-yl)benzamide] | 1.1 | 2.1 | 1.5 | 0.1 | 8 | 24.8 | 52.2
6 | Nc1ccccc1NC(=O)c1ccc(C=C(C(=O)NC2CC2)c2ccccc2)cc1 [Example 107, N-(2-Aminophenyl)-4-(3-(cyclopropylamino)-2-phenyl-3-oxoprop-1-en-1-yl)benzamide] | 2 | 5 | 4.5 | 0.18 | 12 | 34.1 | 58.4
7 | COc1ccc(/C(=C\c2ccc(C(=O)Nc3ccccc3N)cc2)C(=O)Nc2ccccc2)cc1OC [Example 118, N-(2-Aminophenyl)-4-(3-(phenylamino)-2-(3,4-dimethoxyphenyl)-3-oxoprop-1-en-1-yl)benzamide] | 10 | 90 | 4.2 | – | – | 21.0 | 46.0
8 | COc1ccc(/C(=C\c2ccc(/C=C/C(=O)NCCCCCC(=O)NO)cc2)C(=O)NC2CC2)cc1 [Example 84, 6-((1E)-3-(4-(3-(Cyclopropylamino)-2-(4-methoxyphenyl)-3-oxoprop-1-en-1-yl)phenyl)acrylamido)-N-hydroxyhexanamide] | 24 | 70 | 24 | – | – | 93.5 | 96.5
9 | O=C(CCCCCCC(=O)Nc1ccc(/C=C(/C(=O)NC2CC2)c2ccc(F)cc2)cc1)NO [Example 165, N-(4-(3-(Cyclopropylamino)-2-(4-fluorophenyl)-3-oxoprop-1-en-1-yl)phenyl)-N′-hydroxyoctanediamide] | 5.6 | 15 | 11 | – | – | 91.5 | 96.8
10 | O=C(NC1CC1)C(=Cc1ccc(C(=O)Nc2ccccc2O)cc1)c1ccc(F)cc1 [Example 126, 4-(2-(4-Fluorophenyl)-3-(cyclopropylamino)-3-oxoprop-1-en-1-yl)-N-(2-hydroxyphenyl)benzamide] | 14 | 40 | 22 | – | – | 36.9 | 53.9
11 | NC(=O)/C(=C/c1ccc(/C=C/C(=O)NO)cc1)c1ccc(F)cc1 [Example 28, 2-(4-Fluorophenyl)-3-(4-((1E)-3-(hydroxyamino)-3-oxoprop-1-en-1-yl)phenyl)acrylamide] | 6 | 30 | 6.1 | – | – | 80.5 | 100.0
12 | COc1cccc(/C(=C\c2ccc(/C=C/C(=O)NCCCCCC(=O)NO)cc2)C(=O)NC2CC2)c1 [Example 85, 6-((1E)-3-(4-(3-(Cyclopropylamino)-2-(3-methoxyphenyl)-3-oxoprop-1-en-1-yl)phenyl)acrylamido)-N-hydroxyhexanamide] | 26 | 69 | 10.1 | – | – | 96.0 | 100.0
13 | COc1cccc(/C(=C\c2ccc(C(=O)Nc3ccccc3N)cc2)C(=O)NC2CC2)c1 [Example 108, N-(2-Aminophenyl)-4-(3-(cyclopropylamino)-2-(3-methoxyphenyl)-3-oxoprop-1-en-1-yl)benzamide] | > 100 | 80 | 82 | – | – | 39.1 | 61.7
14 | Nc1ccccc1NC(=O)c1ccc(/C=C(/C(=O)NC2CC2)c2cccc(F)c2)cc1 [Example 110, N-(2-Aminophenyl)-4-(3-(cyclopropylamino)-2-(3-fluorophenyl)-3-oxoprop-1-en-1-yl)benzamide] | 0.3 | 5.5 | 5 | 0.15 | 5 | 45.7 | 71.4
15 | Nc1ccccc1NC(=O)/C=C/c1ccc(/C=C(/C(=O)NC2CC2)c2ccc(F)c(F)c2)cc1 [Example 73, N-Cyclopropyl-3-(4-((1E)-3-(2-aminophenylamino)-3-oxoprop-1-en-1-yl}phenyl)-2-(3,4-difluorophenyl)acrylamide] | 10.1 | > 100 | > 100 | – | – | 12.0 | 21.8
16 | Nc1ccccc1NC(=O)c1ccc(/C=C(\C(=O)NC2CC2)c2ccc(F)cc2)cc1 [Example 135, (Z)—N-(2-Aminophenyl)-4-(2-(4-fluorophenyl)-3-(cyclopropylamino)-3-oxoprop-1-en-1-yl)benzamide] | 6.8 | 76 | 9.8 | – | – | 8.6 | 16.6
17 | CNC(=O)/C(=C/c1ccc(C(=O)Nc2ccccc2N)cc1)c1ccc(F)cc1 [Example 134, N-(2-Aminophenyl)-4-(3-(methylamino)-2-(4-fluorophenyl)-3-oxoprop-1-en-1-yl)benzamide] | 6 | 12 | 7.5 | – | – | 38.2 | 63.3
18 | Nc1ccccc1NC(=O)c1ccc(C=C(C(=O)NC2CC2)c2ccc(C(F)(F)F)cc2)cc1 [Example 106, N-(2-Aminophenyl)-4-(3-(cyclopropylamino)-2-(4-trifluoromethylphenyl)-3-oxoprop-1-en-1-yl)benzamide] | 4 | 20 | 15 | – | – | 35.8 | 42.9
19 | O=C(/C=C/c1ccc(/C=C(/C(=O)NC2CC2)c2cccc(Cl)c2)cc1)NCc1ccc(C(=O)NO)cc1 [Example 91, 4-(((1E)-3-(4-(3-(Cyclopropylamino)-2-(3-chlorophenyl)-3-oxoprop-1-en-1-yl)phenyl)acrylamido)methyl)-N-hydroxybenzamide] | 0.2 | 25 | 0.2 | – | < 0.001 | 99.8 | 100.0
20 | O=C(/C=C/c1ccc(/C=C(/C(=O)NC2CC2)c2cccnc2)cc1)NO [Example 8, N-Cyclopropyl-2-(pyridin-3-yl)-3-(4-((1E)-3-(hydroxyamino)-3-oxoprop-1-en-1-yl)phenyl)acrylamide] | 14 | 25 | > 100 | – | – | 84.3 | 100.0
